Results on six compounds are retold here after US8765772B2, “Purine derivatives for use in the treatment of allergic, inflammatory and infectious diseases” (GlaxoSmithKline LLC, priority 2008, dated 2014).

SMILES strings stand for the structures.

This experiment relates to TNF-α. Put plainly: Induction of TNF-α using fresh human PBMCs. Type of experiment: cell-based. To be noted: PBMC, 24 hr incubation, relative to 2 μM resiquimod control, read-out: mean pEC50 for induction of TNF-α (converted). The procedure:
Assay for the Induction of Interferon-α and TNF-α using Fresh Human Peripheral Blood Mononuclear Cells (PBMCs)
Compounds were dissolved and serially diluted in DMSO to give 100× the required concentration range using a Biomek 2000. 1 ul of test compound was transferred into 96-well tissue culture plates using a Biomek FX. Each compound was assayed in duplicate for each donor. Each plate contained a dilution series of the TLR7/8 agonist resiquimod as standard and Column 11 contained 1 μl of 200 μM resiquimod (giving a 2 μM final concentration, used to define the approximate maximal response to resiquimod).
Blood samples from two human donors were collected into sodium heparin (10 U/ml). 25 ml volumes of whole blood were overlaid onto 15 mls Histopaque in Leucosep tubes which were centrifuged at 800 g for 20 min and the band at the plasma/histopaque interface carefully removed. The collected cells were centrifuged at 2500 rpm for 10 min and the pellet resuspended in 10 ml of media (RPMI 1640 (Low endotoxin) supplemented with 10% v/v foetal calf serum (FCS, low endotoxin) 100 U/ml penicillin G, 100 μg/ml streptomycin, 10 mM L-glutamine and 1× non-essential amino acids). A 1:20 dilution of the cells was prepared using trypan blue & the cells counted using a haemocytometer. The PBMCs were diluted to give a final concentration of 2×10^6/ml and 100 ul of this cells suspension was added to wells containing 1 μl of diluted test compound.
Incubation and Assays for Interferon-α and TNF-α
The cell preparations were incubated for 24 hr (37° C., 95% air, 5% CO2) after which a sample of the supernatant was removed using the Biomek FX and assayed for both IFN-α and TNF-α using the MSD (Mesoscale Discovery) electrochemiluminescence assay platform. The IFN-α assay was carried out similarly to that described above. The TNF-α assay was carried out as per kit instructions (Cat No K111BHB). Cytokine released was expressed as a percentage of the 2 μM resiquimod control (column 11). This percentage was plotted against compound concentration and the pEC50 for the response determined by non-linear least squares curve fitting. For the IFN-α responses generally a 4 parameter logistic model was selected. For the TNF responses where a clear maximum response was obtained (i.e. a well defined plateau in the response was observed) then a 4 parameter model was generally used. If the upper asymptote of the curve wasn't well defined then the curve fitting was generally constrained to a maximal response of 100% (i.e. to the response to 2 μM resiquimod) or to the response of the highest concentration tested if this was greater than the resiquimod response. Some curves were bell shaped for one or both cytokines and the cytokine data on the down slope of the bell shaped response (i.e. concentrations above those giving the maximal response) were generally excluded from the fit, usually with the exception of the concentration immediately above the peak response. Curve fitting thus concentrated on the up slope of the dose response curve.
Consider `CCC[C@H](C)Oc1nc(N)c2[nH]c(=O)n(CCCCN3CCCCC3)c2n1` [Example 20, 6-Amino-2-{[(1S)-1-methylbutyl]oxy}-9-[4-(1-piperidinyl)butyl]-7,9-dihydro-8H-purin-8-one], for which the EC50 was not below 1000 nM.

On to `CCC[C@H](C)Oc1nc(N)c2[nH]c(=O)n(CCCCCN3CCCCC3)c2n1` [Example 22, 6-Amino-2-{[(1S)-1-methylbutyl]oxy}-9-[5-(1-piperidinyl)pentyl]-7,9-dihydro-8H-purin-8-one], for which the EC50 is not below 1000 nM.

Take `CCC[C@H](C)Oc1nc(N)c2[nH]c(=O)n(CCCCN3CCCCCC3)c2n1` [Example 21, 6-Amino-9-[4-(hexahydro-1H-azepin-1-yl)butyl]-2-{[(1S)-1-methylbutyl]oxy}-7,9-dihydro-8H-purin-8-one]: the EC50 was not below 1000 nM.

`CCCCOc1nc(N)c2[nH]c(=O)n(CCCCCCN3CCCCCC3)c2n1` [Example 15, 6-Amino-2-(butyloxy)-9-[6-(hexahydro-1H-azepin-1-yl)hexyl]-7,9-dihydro-8H-purin-8-one]: the EC50 was not below 1000 nM.

Turning to `CCC[C@H](C)Oc1nc(N)c2[nH]c(=O)n(CCCCCN3CCCCCC3)c2n1` [Example 23, 6-Amino-9-[5-(hexahydro-1H-azepin-1-yl)pentyl]-2-{[(1S)-1-methylbutyl]oxy}-7,9-dihydro-8H-purin-8-one], the EC50 is not below 1000 nM.

For `CCCCOc1nc(N)c2[nH]c(=O)n(CCCCCCN3CCCC3)c2n1` [Example 13, 6-Amino-2-(butyloxy)-9-[6-(1-pyrrolidinyl)hexyl]-7,9-dihydro-8H-purin-8-one], the EC50 was not below 1000 nM.
